# Test results from patent publication US7871999B2, “Substituted thiazoles and their use for producing drugs” (Gruenenthal GmbH, priority 2005, dated 2011).
# Structures can show the parent of a compound that is named as a salt.
# Target: T1, mGluR5 receptor (Sus scrofa, UniProt I3LUI7)
# T1 construct: pig brain hemispheres without medulla, cerebellum and pons ... differential centrifugation at 900×g and 40,000×g
# Assay: Inhibition of [^3H]-MPEP binding in the mGluR5 receptor binding assay (pig brain homogenate)
# Settings: 5 nM [^3H]-MPEP
# Protocol: I. Method for Determining the Inhibition of [^3H]-MPEP Binding in the mGluR5 Receptor Binding Assay […]
# The batches are then filtered with the assistance of a Brandel Cell Harvester (Brandel, Robotic 9600 model) on Unifilter plates with glass filter mats (Perkin Elmer, order number 6005177) and then washed 3 times with buffer (as above) using 250 μl per sample. The filter plates are then dried for 60 min at 55° C. Then 30 μl of Ultima Gold™ scintillating material (Packard BioScience, order number 6013159) is added per well and after 3 hours the samples are measured using the β counter (Microbeta, Perkin Elmer). Nonspecific binding is determined by the addition of 10 μM MPEP (Tocris, order number 1212).
# T1 sequence (I3LUI7 1-1212): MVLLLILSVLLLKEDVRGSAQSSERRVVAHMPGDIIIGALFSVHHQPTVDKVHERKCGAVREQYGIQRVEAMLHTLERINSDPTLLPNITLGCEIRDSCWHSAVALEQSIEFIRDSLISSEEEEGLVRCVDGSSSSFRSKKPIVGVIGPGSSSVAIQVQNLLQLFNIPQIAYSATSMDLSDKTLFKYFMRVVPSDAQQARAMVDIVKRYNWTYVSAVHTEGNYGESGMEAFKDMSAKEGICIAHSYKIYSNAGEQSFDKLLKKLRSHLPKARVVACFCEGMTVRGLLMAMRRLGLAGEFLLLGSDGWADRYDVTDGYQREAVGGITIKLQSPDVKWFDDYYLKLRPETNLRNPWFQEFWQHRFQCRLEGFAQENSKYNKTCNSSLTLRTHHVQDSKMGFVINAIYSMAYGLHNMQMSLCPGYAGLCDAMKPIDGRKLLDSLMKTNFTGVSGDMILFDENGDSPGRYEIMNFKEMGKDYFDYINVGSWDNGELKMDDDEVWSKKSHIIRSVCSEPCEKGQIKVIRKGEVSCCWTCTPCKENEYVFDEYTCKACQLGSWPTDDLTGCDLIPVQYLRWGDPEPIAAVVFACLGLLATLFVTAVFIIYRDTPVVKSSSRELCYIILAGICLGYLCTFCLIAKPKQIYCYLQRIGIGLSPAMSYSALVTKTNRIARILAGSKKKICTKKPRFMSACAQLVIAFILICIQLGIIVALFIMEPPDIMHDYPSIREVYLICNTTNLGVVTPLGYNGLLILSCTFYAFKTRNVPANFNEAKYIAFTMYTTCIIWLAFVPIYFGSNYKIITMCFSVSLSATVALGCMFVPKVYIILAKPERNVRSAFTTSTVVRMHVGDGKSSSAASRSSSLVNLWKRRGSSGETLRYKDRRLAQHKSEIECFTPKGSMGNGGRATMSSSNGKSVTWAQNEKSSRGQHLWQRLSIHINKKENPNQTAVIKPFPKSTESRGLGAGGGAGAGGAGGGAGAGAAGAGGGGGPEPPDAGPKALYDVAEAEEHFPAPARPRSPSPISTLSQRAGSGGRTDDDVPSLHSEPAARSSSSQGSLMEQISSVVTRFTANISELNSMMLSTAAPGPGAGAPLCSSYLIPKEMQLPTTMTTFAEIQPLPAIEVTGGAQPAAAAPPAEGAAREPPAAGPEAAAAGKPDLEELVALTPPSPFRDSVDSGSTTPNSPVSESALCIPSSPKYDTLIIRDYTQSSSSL
row,IC50,Compound
1,0.39 µM,"O=C(C#Cc1cccc(Cl)c1)NC1CN(c2nccs2)C1 [Example 39, 3-(3-chlorophenyl)-N-(1-(thiazol-2-yl)azetidin-3-yl)-propiolamide]"
2,1.15 µM,"CN(c1nccs1)C1CCCN(C(=O)C#Cc2ccccc2)C1 (stereo not drawn) [Example 28, 3-(methyl-(thiazol-2-yl)-amino)-1-(3-phenylpropioloyl)piperidine]"
3,0.16 µM,"CN(CCNC(=O)C#Cc1cccc(Cl)c1)c1ncc(Cl)s1 [Example 38, 3-(3-chlorophenyl)-N-(2-((5-chlorothiazol-2-yl)(methyl)amino)ethyl)-propiolamide]"
4,0.22 µM,"CN(CCNC(=O)C#Cc1cccc(Cl)c1)c1ncc(C#N)s1 [Example 42, 3-(3-chlorophenyl)-N-(2-((5-cyanothiazol-2-yl)(methyl)amino)ethyl)propiolamide]"
5,0.28 µM,"CN(C(=O)C#Cc1ccccc1)C1CN(c2nccs2)C1 [Example 20, N-methyl-N-(1-(thiazol-2-yl)azetidin-3-yl)-3-phenylpropiolamide]"
6,0.013 µM,"CN(CCNC(=O)C#Cc1cccc(Cl)c1)c1ncc(Br)s1 [Example 31, N-(2-((5-Bromothiazol-2-yl)(methyl)amino)ethyl)-3-(3-chlorophenyl)propiolamide]"
7,0.0041 µM,"CCN(CCNC(=O)C#Cc1cccc(Cl)c1)c1nccs1 [Example 41, 3-(3-Chlorophenyl)-N-(2-(ethyl(thiazol-2-yl)amino)ethyl)propiolamide]"
8,0.071 µM,"CN(c1ncc(F)s1)C1CCN(C(=O)C#Cc2cccc(Cl)c2)C1 (stereo not drawn) [Example 44, 1-(3-(3-Chlorophenyl)propioloyl)-3-(methyl(5-fluorothiazol-2-yl)amino)pyrrolidine]"
9,0.017 µM,"CN(C(=O)C#Cc1cccc(Cl)c1)C1CN(c2nccs2)C1 [Example 40, 3-(3-chlorophenyl)-N-methyl-N-(1-(thiazol-2-yl)azetidin-3-yl)-propiolamide]"
10,0.35 µM,"CN(c1nccs1)C1CCN(C(=O)C#Cc2ccccc2)C1 (stereo not drawn) [Example 22, 3-(Methyl(thiazol-2-yl)amino)-1-(3-phenylpropioloyl)pyrrolidine]"
11,1.32 µM,"CN(C(=O)C#Cc1ccccc1)C1CCN(c2nccs2)C1 (stereo not drawn) [Example 2, N-methyl-3-phenyl-N-(1-(thiazol-2-yl)pyrrolidin-3-yl)propiolamide hydrochloride]"
12,0.022 µM,"CN(C(=O)C#Cc1cccc(Cl)c1)C1CCCN(c2nccs2)C1 (stereo not drawn) [Example 36, 3-(3-Chlorophenyl)-N-methyl-N-(1-(thiazol-2-yl)piperidin-3-yl)propiolamide]"
13,1.25 µM,"CN(CCN(C)c1nccs1)C(=O)C#Cc1ccccn1 [Example 17, N-Methyl-N-(2-(methyl(thiazol-2-yl)amino)ethyl)-3-(pyrid-2-yl)-propiolamide]"
14,0.074 µM,"CN(c1ncc(F)s1)C1CN(C(=O)C#Cc2cccc(Cl)c2)C1 [Example 43, 1-(3-(3-Chlorophenyl)propioloyl)-3-(methyl(5-fluorothiazol-2-yl)amino)azetidine]"
15,0.027 µM,"Cc1csc(N(C)CCNC(=O)C#Cc2cccc(Cl)c2)n1 [Example 29, N-(2-(methyl-(4-methylthiazol-2-yl)amino)ethyl)-3-(3-chlorophenyl)-propiolamide]"
16,10.2 µM,"O=C(C#Cc1ccccc1)NC1CN(c2nccs2)C1 [Example 8, 3-Phenyl-N-(1-(thiazol-2-yl)azetidin-3-yl)propiolamide]"
17,0.59 µM,"O=C(C#Cc1ccccc1)N1CCCN(c2nccs2)CC1 [Example 3, 1-Thiazol-2-yl-4-(3-phenylpropioloyl)-1,4-diazepane]"
18,2.18 µM,"O=C(C#Cc1ccccc1)N1CCC(Nc2nccs2)C1 (stereo not drawn) [Example 11, 3-(Thiazol-2-yl-amino)-1-(3-phenylpropioloyl)pyrrolidine]"
19,1.58 µM,"O=C(C#Cc1ccccc1)NCCNc1nccs1 [Example 5, N-(2-((thiazol-2-yl)amino)ethyl)-3-phenylpropiolamide]"
20,4.97 µM,"CN(CC(=O)N(C)c1nccs1)C(=O)C#Cc1ccccc1 [Example 14, N-Methyl-N-(2-(methyl(thiazol-2-yl)amino)-2-oxoethyl)-3-phenylpropiolamide]"
21,0.14 µM,"CN(C(=O)C#Cc1ccccc1)C1CCCN(c2nccs2)C1 (stereo not drawn) [Example 16, N-methyl-N-(1-(thiazol-2-yl)piperidin-3-yl)-3-phenylpropiolamide]"

# Same assay, conditions: 1 μM test compound, 5 nM [^3H]-MPEP
row,Compound,inhibition at 1 µM
1,"COc1cccc(C#CC(=O)NC2CCN(c3nc(C)c(C)s3)C2)c1 (stereo not drawn) [Example 90, N-(1-(4,5-dimethylthiazol-2-yl)pyrrolidin-3-yl)-3-(3-methoxyphenyl)propiolamide]",34%
2,"Cc1cnc(N2CCC(NC(=O)C#Cc3cccc(F)c3)C2)s1 (stereo not drawn) [Example 81, 3-(3-fluorophenyl)-N-(1-(5-methylthiazol-2-yl)pyrrolidin-3-yl)propiolamide]",57%
3,"Cc1ccc(C#CC(=O)NC2CCN(c3ncc(C)s3)C2)cc1 (stereo not drawn) [Example 73, N-(1-(5-methylthiazol-2-yl)pyrrolidin-3-yl)-3-p-tolylpropiolamide]",18%
4,"Cc1cnc(N2CCC(NC(=O)C#Cc3cccc(C(F)(F)F)c3)C2)s1 (stereo not drawn) [Example 87, N-(1-(5-methylthiazol-2-yl)pyrrolidin-3-yl)-3-(3-(trifluoromethyl)phenyl)-propiolamide]",23%
5,"Cc1cnc(N2CCC(NC(=O)C#Cc3cccc(Cl)c3)C2)s1 (stereo not drawn) [Example 112, 3-(3-chlorophenyl)-N-(1-(5-methylthiazol-2-yl)pyrrolidin-3-yl)propiolamide]",24%
6,"Cc1cnc(N2CCC(NC(=O)C#Cc3ccccc3F)C2)s1 (stereo not drawn) [Example 77, 3-(2-fluorophenyl)-N-(1-(5-methylthiazol-2-yl)pyrrolidin-3-yl)propiolamide]",21%

# More lines, now with the values ahead:
row,inhibition at 1 µM,Compound
1,87%,"Cc1cccc(C#CC(=O)NC2CCN(c3nc(C)cs3)C2)c1 (stereo not drawn) [Example 72, N-(1-(4-methylthiazol-2-yl)pyrrolidin-3-yl)-3-m-tolylpropiolamide]"
2,59%,"Cc1csc(N2CCC(NC(=O)C#Cc3ccccc3)C2)n1 (stereo not drawn) [Example 45, N-(1-(4-methylthiazol-2-yl)pyrrolidin-3-yl)-3-phenylpropiolamide]"
3,26%,"CC(C)(C)c1csc(N2CCC(NC(=O)C#Cc3ccc(F)cc3)C2)n1 (stereo not drawn) [Example 57, N-(1-(4-tert.-butylthiazol-2-yl)pyrrolidin-3-yl)-3-(4-fluorophenyl)propiolamide]"
4,38%,"CC(C)(C)c1csc(N2CCC(NC(=O)C#Cc3cccc(Cl)c3)C2)n1 (stereo not drawn) [Example 100, N-(1-(4-tert.-butylthiazol-2-yl)pyrrolidin-3-yl)-3-(3-chlorophenyl)propiolamide]"
5,30%,"CC(C)(C)c1csc(N2CCC(NC(=O)C#Cc3ccccc3)C2)n1 (stereo not drawn) [Example 60, N-(1-(4-tert.-butylthiazol-2-yl)pyrrolidin-3-yl)-3-phenylpropiolamide]"
6,50%,"Cc1csc(N2CCC(NC(=O)C#Cc3ccccc3F)C2)n1 (stereo not drawn) [Example 70, 3-(2-fluorophenyl)-N-(1-(4-methylthiazol-2-yl)pyrrolidin-3-yl)propiolamide]"
7,46%,"Cc1cccc(C#CC(=O)NC2CCN(c3nc(C(C)(C)C)cs3)C2)c1 (stereo not drawn) [Example 99, N-(1-(4-tert.-butylthiazol-2-yl)pyrrolidin-3-yl)-3-m-tolylpropiolamide]"
8,48%,"COc1cccc(C#CC(=O)NC2CCN(c3nc(C)cs3)C2)c1 (stereo not drawn) [Example 46, 3-(3-methoxyphenyl)-N-(1-(4-methylthiazol-2-yl)pyrrolidin-3-yl)propiolamide]"
9,59%,"Cc1csc(N2CCC(NC(=O)C#Cc3cccc(C(F)(F)F)c3)C2)n1 (stereo not drawn) [Example 71, N-(1-(4-methylthiazol-2-yl)pyrrolidin-3-yl)-3-(3-(trifluoromethyl)phenyl)-propiolamide]"
10,76%,"Cc1csc(N2CCC(NC(=O)C#Cc3cccc(F)c3)C2)n1 (stereo not drawn) [Example 67, 3-(3-fluorophenyl)-N-(1-(4-methylthiazol-2-yl)pyrrolidin-3-yl)propiolamide]"
11,48%,"Cc1nc(N2CCC(NC(=O)C#Cc3ccccc3)C2)sc1C (stereo not drawn) [Example 51, N-(1-(4,5-dimethylthiazol-2-yl)pyrrolidin-3-yl)-3-phenylpropiolamide]"

# Same assay, conditions: 10 μM test compound, 5 nM [^3H]-MPEP
row,Compound,inhibition at 10 µM
1,"Cc1nc(N2CCC(NC(=O)C#Cc3cccc(Cl)c3)C2)sc1C (stereo not drawn) [Example 110, 3-(3-chlorophenyl)-N-(1-(4,5-dimethylthiazol-2-yl)pyrrolidin-3-yl)propiolamide]",63%
2,"CN(C(=O)C#Cc1ccccc1)C1CCCCC1N(C)c1nccs1 (stereo not drawn) [Example 12, N-Methyl-N-(2-(methyl(thiazol-2-yl)amino)cyclohexyl)-3-phenylpropiolamide]",41%
3,"O=C(C#Cc1ccccc1)N1CCCC(Nc2nccs2)C1 (stereo not drawn) [Example 27, 3-(thiazol-2-yl-amino)-1-(3-phenylpropioloyl)piperidine]",19%
4,"O=C(C#Cc1ccccc1)NC1CCCCC1Nc1nccs1 (stereo not drawn) [Example 6, 3-phenyl-N-(2-(thiazol-2-ylamino)cyclohexyl)propiolamide]",57%
5,"Cc1cnc(N2CCC(NC(=O)C#Cc3ccccn3)C2)s1 (stereo not drawn) [Example 119, N-(1-(5-methylthiazol-2-yl)pyrrolidin-3-yl)-3-(pyridin-2-yl)propiolamide]",20%

# Other lines, results leading:
row,inhibition at 10 µM,Compound
1,66%,"O=C(C#Cc1ccccc1)NC1CCN(c2nccs2)C1 (stereo not drawn) [Example 1, 3-Phenyl-N-(1-(thiazol-2-yl)pyrrolidin-3-yl)propiolamide]"
2,83%,"Cc1csc(N2CCC(NC(=O)C#Cc3cccc(Cl)c3)C2)n1 (stereo not drawn) [Example 105, 3-(3-chlorophenyl)-N-(1-(4-methylthiazol-2-yl)pyrrolidin-3-yl)propiolamide]"
